Data as given in patent publication US4931440A, “Uricosuric composition” (Fujisawa Pharmaceutical Company, Ltd., priority 1987, dated 1990).

Legend:
[1] = Uricosuric action: serum uric acid level in healthy male adult volunteers; type: in vivo, humans; settings: single oral dose 600 mg (two capsules of Example 1), N = 6
Experimental: Compound A, in a single dose of 600 mg (two capsules according to the example (1) given hereinafter), was administered orally to six humans (healthy male adult volunteers) and the serum uric acid level was determined for 48 hours after administration.

[2] = Acute toxicity, oral, 14 days observation; settings: rat, in vivo, male SD rats
Description: Male SD rats (5 animals per group) were orally dosed with a suspension of the test compound in 0.5% methylcellulose solution and observed for 14 days after oral administration.

[3] = Effect on uric acid excretion in female rats (urinary uric acid assayed by HPLC); type: in vivo, female SD rats; settings: p.o., urine collected 0-6 hr, dose 0: 3.07 ± 0.44
Experimental: Female SD rats (6 weeks old) were fasted for 18 hours and submitted to the test (3 animals per group).
Compound B was suspended in 0.5% methylcellulose solution and the suspension was orally administered in a dosing volume of 5 ml/kg.
At the same time, the animals were orally loaded with 20 ml/kg of physiological saline. Urine samples were collected up to 6 hours after drug administration. The uric acid in each urine sample was assayed by HPLC.

SMILES: O=C(O)Cn1c(=O)n(Cc2ccc(Br)cc2F)c(=O)c2ccc(Cl)cc21 [Compound A]
- Serum uric acid concentration, mean ± standard deviation ([1]; 4 Hrs. after administration, *: significant decrease from baseline (5.5500 ± 0.9439), < 0.05): 4.5000 ± 0.6542 mg/dL
- Serum uric acid concentration, mean ± standard deviation ([1]; 8 Hrs. after administration, **: significant decrease from baseline (5.5500 ± 0.9439), P < 0.01): 4.0333 ± 0.6250 mg/dL
- Serum uric acid concentration, mean ± standard deviation ([1]; 12 Hrs. after administration, **: significant decrease from baseline (5.5500 ± 0.9439), P < 0.01): 4.1667 ± 0.7448 mg/dL
- Serum uric acid concentration, mean ± standard deviation ([1]; 24 Hrs. after administration, *: significant decrease from baseline (5.5500 ± 0.9439), < 0.05): 4.3167 ± 0.7360 mg/dL
- Serum uric acid concentration, mean ± standard deviation ([1]; 48 Hrs. after administration, *: significant decrease from baseline (5.5500 ± 0.9439), < 0.05): 4.5167 ± 0.5981 mg/dL
- LD50 at 336 h [2]: 4250 mg/kg

SMILES: O=C(O)Cn1c(=O)n(Cc2ccc(Br)cc2F)c(=O)c2ccc(F)cc21 [Compound B, 2-[7-Fluoro-3-(4-bromo-2-fluorobenzyl)-1,2,3,4-tetrahydro-2,4-dioxoquinazolin-1-yl]acetic acid]
- Excretion of uric acid, mean ± S.E. ([3]; 10 mg/kg): 3.36 ± 0.14 mg/kg
- Excretion of uric acid, mean ± S.E. ([3]; 100 mg/kg): 4.02 ± 0.18 mg/kg
- Excretion of uric acid, mean ± S.E. ([3]; 320 mg/kg, *: P < 0.05): 4.88 ± 0.24 mg/kg
- LD50 at 336 h [2]: 2140 mg/kg
